{
  "source": "patent US10098861B1",
  "about": "(SyneuRx International (Taiwan) Corp., priority 2017, dated 2018)",
  "conditions": "500 mg, >90% RH, ambient temperature, 5 days",
  "data": [
    {"smiles": "O=C([O-])c1ccccc1.[Na+]", "note": "[sodium benzoate]", "values": [
      {"measurement": "change in XRPD pattern", "value": "significant changes"}
    ]}
  ]
}
